# From patent US20070275382A1, “Biomarkers for the Efficacy of Somatostatin Analogue Treatment” (priority 2003, published 2007)
# Values joined by “and” are separate entries in the source; they are usually repeats but may differ in a detail not shown here. Equal entries are not always repeated. *1 amine or outer side, *2 acyl side, *3 side chain or, on linkers, in order; H or OH if unused. Where a SMILES comes first, the peptide text is derived from it. Side-chain parts run from the residue outwards. [ ]: non-standard residue; d: D form. The star is where a group is joined. Ethylenediamine = C(CN[*:2])N[*:1]; Hyp = O=C(O)[CH]1C[CH](O)CN1; Phg = N[CH](C(=O)O)c1ccccc1; CO = O=C([*:1])[*:2]; Bn = c1ccc(C*)cc1
# Tested on: Pituitary gland
# Assay: Microarray gene expression profiling (HG-U95A), pituitary
# Format: in vivo, cynomolgus monkeys
# Protocol: Origin of tissue and processing. Male and female cynomolgus monkeys received subcutaneously pasireotide (100 μg/animal/day) or the vehicle for 14 days. On day 15, all animals were sacrificed and tissues for RNA extraction were immediately snap-frozen and kept at −80° C. until processing.
# RNA expression profiling was conducted by means of the HG-U95A gene expression probe array (Affymetrix; Santa Clara, Calif. USA), containing more than 12,600 probe sets interrogating primarily full-length human genes and also some control probe sets. The experiment was conducted according to the recommendations of the manufacturer. Briefly, total RNA was obtained by acid guanidinium thiocyanate-phenol-chloroform extraction (Trizol®, Invitrogen Life Technologies, San Diego, Calif. USA) from each frozen tissue section. The total RNA was then purified on an affinity resin (Rneasy®, Qiagen) and quantified. Double stranded cDNA was synthesized with a starting amount of approximately 5 μg full-length total RNA using the Superscript® Choice System (Invitrogen Life Technologies, Carlsbad, Calif. USA) in the presence of a T7-(dT)24 DNA oligonucleotide primer. Following synthesis, the cDNA was purified by phenol/chloroform/isoamyl alcohol extraction and ethanol precipitation. The purified cDNA was then transcribed in vitro using the BioArray® High Yield RNA Transcript Labeling Kit (ENZO, Farmingdale, N.Y. USA) in the presence of biotinylated ribonucleotides form biotin labelled cRNA. The labelled cRNA was then purified on an affinity resin (Rneasy®, Qiagen), quantified and fragmented. An amount of approximately 10 μg labelled cRNA was hybridized for 16 hours at 45° C. to an expression probe array. The array was then washed and stained twice with streptavidin-phycoerythrin (Molecular Probes,) using the GeneChip® Fluidics Workstation 400 (Affymetrix, Santa Clara, Calif. USA). The array was then scanned twice using a confocal laser scanner (GeneArray® Scanner, Agilent, Palo Alto, Calif. USA) resulting in one scanned image. This resulting “.dat-file” was processed using the MAS4 program (Affymetrix) into a “.cel-file”. The “.cel file” was captured and loaded into the Affymetrix GeneChip® Laboratory Information Management System (LIMS). The LIMS database is connected to a UNIX Sun Solaris server through a network filing system that allows for the average intensities for all probes cells (CEL file) to be downloaded into an Oracle database (NPGN). Raw data was converted to expression levels using a “target intensity” of 150. The data were evaluated for quality control and loaded in the GeneSpring® software 4.2.4 (Silicon Genetics, Calif. USA) for analysis.
# On the human Affymetrix HGU95Av2 chip, probe sets for individual genes contain 20 oligonucleotide pairs, each composed of a “perfect match” 25-mer and a “mismatch” 25-mer differing from the “perfect” match oligonucleotide at a single base. After probe labelling, hybridization, and laser scanning, the expression level was estimated by averaging the differences in signal intensity measured by oligonucleotide pairs of a given probe (AvgDiff value). The fold changes and directions were calculated for selected genes, from the differences of the AvgDiff values between controls and treated.
# To identify genes that were impacted by pasireotide, the dataset was initially filtered to exclude in a first wave of analysis, genes whose values were systematically in the lower expression ranges where the experimental noise is high (at least 80 in a number of experiments corresponding to the smallest number of replicas of any experimental point). In a second round of selection a threshold p-value of 0.05 (based on a t-test) identified differences between treated and control based on a two component error model (Global Error Model) and, whenever possible, with a stepdown correction for multi-hypothesis testing (Benjamini and Hochberg false discovery rate). […]
# [1] = ↑ vs control, 100 μg/animal/day s.c., 14 days
structure (smiles),measurement,setting,value
"NCCCCC1NC(=O)C(Cc2c[nH]c3ccccc23)NC(=O)C(c2ccccc2)NC(=O)C2CC(OC(=O)NCCN)CN2C(=O)C(Cc2ccccc2)NC(=O)C(Cc2ccc(OCc3ccccc3)cc2)NC1=O (stereo not drawn) [Pasireotide, cyclo[4-(NH2—C2H4—NH—CO—O)Pro-Phg-DTrp-Lys-Tyr(4-Bzl)-Phe]] (cyclo(F[Hyp]([CO-Ethylenediamine])[Phg]WKY(Bn)); configuration not given here)","ATPase, H+/K+ exchanging, α polypeptide expression level, AvgDiff (range)",0.1 mg/animal/14 day,20
same,"ATPase, Na+/K+ transporting, α 2 (+) polypeptide expression level, AvgDiff (range)",0.1 mg/animal/14 day,184 (69 to 325)
same,"ATPase, Na+/K+ transporting, β 3 polypeptide expression level, AvgDiff (range)",0.1 mg/animal/14 day,610 (335 to 949)
same,"BCL2-antagonist of cell death expression level, AvgDiff (range)",0.1 mg/animal/14 day,69 (42 to 89)
same,"BCL2-associated athanogene expression level, AvgDiff (range)",0.1 mg/animal/14 day,318 (235 to 409)
same,"Bax gamma expression level, AvgDiff (range)",0.1 mg/animal/14 day,326 (221 to 448)
same,"Cdk inhibitor 2C (p18, inhibits CDK4) expression level, AvgDiff (range)",0.1 mg/animal/14 day,184 (140 to 229)
same,"Cdk inhibitor 2D (p19, inhibits CDK4) expression level, AvgDiff (range)",0.1 mg/animal/14 day,99 (83 to 118)
same,"Cell division cycle 25B expression level, AvgDiff (range)",0.1 mg/animal/14 day,162 (134 to 187)
same,"Core-binding factor, runt domain, α subunit 2; translocated to, 1; cyclin D-related expression level, AvgDiff (range)",0.1 mg/animal/14 day,491 (251 to 677)
same,"Cyclin D3 expression level, AvgDiff (range)",0.1 mg/animal/14 day,338 (202 to 446)
same,"Cyclin F expression level, AvgDiff (range)",0.1 mg/animal/14 day,74 (48 to 132)
same,"Dual specificity phosphatase 8 expression level, AvgDiff (range)",0.1 mg/animal/14 day,170 (67 to 238)
same,"Forkhead box O3A expression level, AvgDiff (range)",0.1 mg/animal/14 day,257 (186 to 324)
same,"GLUR 2, precursor expression level, AvgDiff (range)",0.1 mg/animal/14 day,59 (20 to 177)
same,"GR expression level, AvgDiff (range)",0.1 mg/animal/14 day,109 (51 to 215)
same,"IGF-2 expression level, AvgDiff (range)",0.1 mg/animal/14 day,70 (20 to 150)
same,"IGFBP, acid labile subunit expression level, AvgDiff (range)",0.1 mg/animal/14 day,83 (20 to 110)
same,"IP-4-phosphatase, type 1, isoform b expression level, AvgDiff (range)",0.1 mg/animal/14 day,177 (107 to 232)
same,"K+ channel, subfamily K, member 3 (TASK) expression level, AvgDiff (range)",0.1 mg/animal/14 day,26 (20 to 43)
same,"K+ voltage-gated channel, Shab-related subfamily, member 1 expression level, AvgDiff (range)",0.1 mg/animal/14 day,22 (20 to 31)
same,"MAPKKK5 expression level, AvgDiff (range)",0.1 mg/animal/14 day,278 (221 to 351)
same,"Neuroblastoma-amplified protein expression level, AvgDiff (range)",0.1 mg/animal/14 day,237 (201 to 258)
same,"PI transfer protein, β expression level, AvgDiff (range)",0.1 mg/animal/14 day,42 (34 to 50)
same,"PI-3-kinase, catalytic, α polypeptide expression level, AvgDiff (range)",0.1 mg/animal/14 day,21 (20 to 24)
same,"PI-3-kinase, catalytic, δ polypeptide expression level, AvgDiff (range)",0.1 mg/animal/14 day,34 (20 to 67)
same,"PKC inhibitor expression level, AvgDiff (range)",0.1 mg/animal/14 day,"3,333 (2,339 to 3,878) and 3,332 (2,339 to 3,878)"
same,"PLC, γ 1 (formerly subtype 148) expression level, AvgDiff (range)",0.1 mg/animal/14 day,40 (20 to 63)
same,"PP 1, regulatory (inhibitor) subunit 5 expression level, AvgDiff (range)",0.1 mg/animal/14 day,75 (60 to 90)
same,"PTP, receptor type, T expression level, AvgDiff (range)",0.1 mg/animal/14 day,101 (48 to 129)
same,"Phosphatase and tensin homolog (mutated in multiple advanced cancers 1) expression level, AvgDiff (range)",0.1 mg/animal/14 day,36 (20 to 63)
same,"Programmed cell death 6 expression level, AvgDiff (range)",0.1 mg/animal/14 day,635 (513 to 747)
same,"Putative Ca++ transporting ATPase expression level, AvgDiff (range)",0.1 mg/animal/14 day,101 (84 to 112)
same,"RAB 5C, member RAS oncogene family expression level, AvgDiff (range)",0.1 mg/animal/14 day,162 (109 to 212)
same,"Rab geranylgeranyltransferase, α subunit expression level, AvgDiff (range)",0.1 mg/animal/14 day,104 (70 to 172)
same,"Rab geranylgeranyltransferase, βsubunit expression level, AvgDiff (range)",0.1 mg/animal/14 day,284 (246 to 374)
same,"S-phase response (cyclin-related) expression level, AvgDiff (range)",0.1 mg/animal/14 day,129 (111 to 148)
same,"SHB adaptor protein (a Src homology 2 protein) expression level, AvgDiff (range)",0.1 mg/animal/14 day,38 (20 to 55)
same,"SSTR3 expression level, AvgDiff (range)",0.1 mg/animal/14 day,57 (20 to 90)
same,ANP (atrial natriuretic peptide precursor B) transcript fold change,[1],↑ x2
same,ATP(GTP)-binding protein transcript fold change,[1],protein ↑ x1.5
same,"ATPase, Ca++ transporting cardiac muscle, slow twitch 2 transcript fold change",[1],↑ x1.5
same,"ATPase, Na+/K+ transporting, α 2(+) polypeptide transcript fold change",[1],polypeptide ↑ x2.5
same,"ATPase, Na+/K+ transporting, β 3 polypeptide transcript fold change",[1],polypeptide ↑ x2.5
same,Adrenomedullin transcript fold change,[1],Adrenomedullin ↑ x2.5
same,BCL2-antagonist of cell death transcript fold change,[1],cell death ↑ x2
same,BCL2-associated athanogene transcript fold change,[1],athanogene ↑ x2
same,BCL2/adenovirus E1B 19 kD-interacting protein 3 transcript fold change,[1],3 ↑ x1.5
same,Bax γ transcript fold change,[1],Bax γ ↑ x1.5
same,Brain cannabinoid receptor 1 transcript fold change,[1],receptor 1 ↑ x2
same,Butyrate response factor 2 (EGF-response factor 2) transcript fold change,[1],factor 2) ↑ x3
same,CC chemokines STCP-1 transcript fold change,[1],STCP-1 ↑ x1.5
same,Calcium/calmodulin-dependent protein kinase I transcript fold change,[1],kinase I ↑ x2.5
same,"Cdki2C (p18, inhibits CDK4) transcript fold change",[1],CDK4) ↑ x2
same,"Cdki2D (p19, inhibits CDK4) transcript fold change",[1],CDK4) ↑ x1.5
same,Cell division cycle 25B transcript fold change,[1],↑ x5
same,"Core-binding factor, runt domain, α subunit 2; translocated to, 1; cyclin D-related transcript fold change",[1],cyclin D-related ↑ x3
same,Cyclin D3 transcript fold change,[1],Cyclin D3 ↑ x2.5
same,Forkhead box H1 transcript fold change,[1],Forkhead box H1↑ x2
same,"G protein-coupled receptor, family C, group 5, member B transcript fold change",[1],"group 5, member B ↑ x2"
same,G-protein coupled receptor 9 transcript fold change,[1],receptor 9 ↑ x2.5
same,"GABA-B R 1, isoform a precursor transcript fold change",[1],↑ x1.5
